The record followed here is US8759366B2, “Aminopyrimidines as SYK inhibitors” (Merck Sharp & Dohme Corp., priority 2009, dated 2014).

Counter-ions that a name gives are not always drawn. Where only a bound is given, the exact number is not on record here.

The target of this assay is rhSYK (Homo sapiens (Human), UniProt P43405). As to conditions: read-out: rhSYK activity.
Consider `Cc1cc(Nc2ncc(Cl)c(C)n2)cc(-c2cnc(C(C)(O)CO)s2)c1` (stereo not drawn) [Ex 5-14], for which the IC50 was less than 100 nM.
Next, `CCOC(=O)C1CCC(O)(c2ncc(-c3cc(C)cc(Nc4nccc(C)n4)c3)s2)CC1c1ccccc1C` (stereo not drawn) [Example 4C-27]: 100 to 1000 nM.
Next, `COC(=O)C1CC(O)(c2ncc(-c3cc(C)cc(Nc4nccc(C(F)(F)F)n4)c3)s2)CCN1C(=O)OC(C)(C)C` (stereo not drawn) [4D-14]: 100 to 1000 nM.
Next, `Cc1cc(Nc2nccc(C(F)(F)F)n2)cc(-c2cnc(C3(C(N)=O)CCC(N)CC3)s2)c1` (stereo not drawn) [molecule A, cis-4-amino-1-[5-(3-methyl-5-{[4-(trifluoromethyl)pyrimidin-2-yl]amino}phenyl)-1,3-thiazol-2-yl]cyclohexanecarboxamide]: less than 100 nM; `Cc1cc(Nc2nccc(C(F)(F)F)n2)cc(-c2cnc(C3(O)COC(C)(C)OC3)s2)c1` [Example 4B-14]: less than 100 nM; `OC1(c2ncc(-c3cc(NCC(F)(F)F)cc(Nc4nccc(C(F)(F)F)n4)c3)s2)CCC1` [Example 27, 1-[5-(3-[(2,2,2-trifluoroethyl)amino]-5-{[4-(trifluoromethyl)pyrimidin-2-yl]amino}phenyl)-1,3-thiazol-2-yl]cyclobutanol]: less than 100 nM.
On to `O=[N+]([O-])c1cc(Nc2nccc(C(F)(F)F)n2)cc(-c2cnc(C3(O)CCC3)s2)c1` [Example 18, 1-[5-(3-nitro-5-{[4-(trifluoromethyl)pyrimidin-2-yl]amino}phenyl)-1,3-thiazol-2-yl]cyclobutanol], for which the IC50 was in the range of 100 to 1000 nM.
Next, `Cc1cc(Nc2nccc(C(F)(F)F)n2)cc(-c2cnc(C(C)(C)S(C)(=O)=O)s2)c1` [Example 73, N-(3-methyl-5-{2-[2-(methylsulfonyl)propan-2-yl]-1,3-thiazol-5-yl}phenyl)-4-(trifluoromethyl)pyrimidin-2-amine]: less than 100 nM.
Next, `OCCC(O)(CCO)c1ncc(-c2cccc(Nc3nccc(C(F)(F)F)n3)c2)s1` [Example 5, 3-[5-(3-{[4-(trifluoromethyl)pyrimidin-2-yl]amino}phenyl)-1,3-thiazol-2-yl]pentane-1,3,5-triol]: 100 to 1000 nM.
Next, `CC(=O)N1CCC(O)(c2ncc(-c3cccc(Nc4nccc(C(F)(F)F)n4)c3)s2)CC1` [4D-1]: less than 100 nM.
Take `Cc1cc(Nc2nccc(C(F)(F)F)n2)cc(-c2cnc(C3(O)CCN(C(=O)OC(C)(C)C)C(C(F)(F)F)C3)s2)c1` (stereo not drawn) [4D-15]: the IC50 lay within 100 to 1000 nM.
Next, `OC(c1ncc(-c2cccc(Nc3nccc(C(F)(F)F)n3)c2)s1)C1CC1` (stereo not drawn) [Example 4A-5, cyclopropyl[5-(3-{[4-(trifluoromethyl)pyrimidin-2-yl]amino}phenyl)-1,3-thiazol-2-yl]methanol]: less than 100 nM.
With `Cc1cc(Nc2nccc(C(F)(F)F)n2)cc(-c2cnc(C3(O)C4CC5CC3CC(O)(C5)C4)s2)c1` (stereo not drawn) [Example 4B-42], the IC50 was less than 100 nM.
Regarding `CC(=O)N1CCC(O)(c2ncc(-c3cc(C)cc(Nc4nccc(C(F)(F)F)n4)c3)s2)CC1` [Example 51, 1-(4-hydroxy-4-[5-(3-methyl-5-{[4-(trifluoromethyl)pyrimidin-2-yl]amino}phenyl)-1,3-thiazol-2-yl]piperidin-1-yl)ethanone], the IC50 is less than 100 nM.
Next, `Cc1cc(Nc2nccc(C)n2)cc(-c2cnc(C3(O)CCC(CN)CC3)s2)c1` (stereo not drawn) [Example 4C-3]: less than 100 nM.
Next, `Cc1cc(Nc2nccc(C(F)(F)F)n2)cc(-c2cnc(C3(O)CCN(c4ccccc4C)CC3)s2)c1` [4D-9]: 100 to 1000 nM; `COc1ccnc(Nc2cc(C)cc(-c3cnc(C4(Cl)CCN(S(N)(=O)=O)CC4)s3)c2)n1` [54(2), 4-Chloro-4-(5-{3-[(4-methoxypyrimidin-2-yl)amino]-5-methylphenyl}-1,3-thiazol-2-yl)-piperidine-1-sulfonamide]: less than 100 nM.
Next, `COC(=O)[C@H](C)Cc1ncc(-c2cc(C)cc(Nc3nccc(C(F)(F)F)n3)c2)s1` [Example 76, Methyl (2R)-2-methyl-3-[5-(3-methyl-5-{[4-(trifluoromethyl)pyrimidin-2-yl]amino}phenyl)-1,3-thiazol-2-yl]propanoate]: less than 100 nM; `Cc1cc(Nc2nccc(C(F)(F)F)n2)cc(-c2cnc([C@]3(O)CC[C@@H](c4noc(=O)[nH]4)CC3)s2)c1` [Example 39, 3-{cis-4-Hydroxy-4-[5-(3-methyl-5-{[4-(trifluoromethyl)pyrimidin-2-yl]amino}phenyl)-1,3-thiazol-2-yl]cyclohexyl}-1,2,4-oxadiazol-5(4H)-one]: less than 100 nM; `COC1(c2ncc(-c3cc(C)cc(Nc4nccc(C(F)(F)F)n4)c3)s2)CCC(C(=O)O)CC1` (stereo not drawn) [Example 40(1), 2-({3-[2-(cis-4-Carboxy-1-methoxycyclohexyl)-1,3-thiazol-5-yl]-5-methylphenyl}amino)-4-(trifluoromethyl)pyrimidin-1-ium trifluoroacetate]: less than 100 nM.
As for `Cc1cc(Nc2nccc(C(F)(F)F)n2)cc(-c2cnc(C3(O)CCNCC3)s2)c1` [Example 46, 4-[5-(3-methyl-5-{[4-(trifluoromethyl)pyrimidin-2-yl]amino}phenyl)-1,3-thiazol-2-yl]piperidin-4-ol], the IC50 is less than 100 nM.
Next, `Cc1cc(Nc2ncc(F)c(C)n2)cc(-c2cncs2)c1` [Intermediate 49, 5-Fluoro-4-methyl-N-[3-methyl-5-(1,3-thiazol-5-yl)phenyl]pyrimidin-2-amine]: less than 100 nM.
Next, `Cc1cc(Nc2nccc(C(F)(F)F)n2)cc(-c2cnc(C(NC(=O)C3(C(N)=O)CC3)(C3CC3)C3CC3)s2)c1` [Example 67, N-{dicyclopropyl[5-(3-methyl-5-{[4-(trifluoromethyl)pyrimidin-2-yl]amino}phenyl)-1,3-thiazol-2-yl]methyl}cyclopropane-1,1-dicarboxamide]: less than 100 nM; `OC(c1ncc(-c2cccc(Nc3nccc(C(F)(F)F)n3)c2)s1)(C(F)(F)F)C(F)(F)F` [Example 4A-3]: less than 100 nM.
Next, `Cc1cc(Nc2nccc(C(F)(F)F)n2)cc(-c2cnc(CS(N)(=O)=O)s2)c1` [Example 75, 1-[5-(3-methyl-5-{[4-(trifluoromethyl)pyrimidin-2-yl]amino}phenyl)-1,3-thiazol-2-yl]methanesulfonamide]: less than 100 nM; `Cc1cc(Nc2nccc(C(F)(F)F)n2)cc(-c2cnc(C3(O)CCC4(CCC(=O)N4)CC3)s2)c1` (stereo not drawn) [Example 4B-24]: less than 100 nM; `Cc1cc(Nc2nccc(C(=O)N3CCNCC3)n2)cc(-c2cnc(C(C)(O)C(F)(F)F)s2)c1` (stereo not drawn) [Example 69, [2-({3-methyl-5-[2-(1,1,1-trifluoro-2-hydroxypropan-2-yl)-1,3-thiazol-5-yl]phenyl}amino)-pyrimidin-4-yl](piperazin-1-yl)methanone]: less than 100 nM.
`Nc1cc(Nc2nccc(C(F)(F)F)n2)cc(-c2cnc(C3(O)CCC3)s2)c1` [Example 17, 1-[5-(3-amino-5-{[4-(trifluoromethyl)pyrimidin-2-yl]amino}phenyl)-1,3-thiazol-2-yl]cyclobutanol]: the IC50 was less than 100 nM.
Next, `OC(c1ncc(-c2cccc(Nc3nccc(C(F)(F)F)n3)c2)s1)(C1CC1)C(F)(F)F` (stereo not drawn) [Example 12, 1-Cyclopropyl-2,2,2-trifluoro-1-[5-(3-{[4-(trifluoromethyl)pyrimidin-2-yl]amino}phenyl)-1,3-thiazol-2-yl]ethanol]: less than 100 nM.
Regarding `Cc1cc(Nc2nccc(C(F)(F)F)n2)cc(-c2cnc(C3(O)CCC(C4(N)CC4)CC3)s2)c1` (stereo not drawn) [Example 4C-20], the IC50 was less than 100 nM.
Next, `CCOC(=O)N1CCC(O)(c2ncc(-c3cccc(Nc4nccc(C(F)(F)F)n4)c3)s2)CC1` [4D-4]: less than 100 nM; `Cc1cc(Nc2nccc(C(F)(F)F)n2)cc(-c2cnc(C3(O)CN(C(C)(C)C(=O)O)C3)s2)c1` [Example 53(1), 2-{3-Hydroxy-3-[5-(3-methyl-5-{[4-(trifluoromethyl)pyrimidin-2-yl]amino}phenyl)-1,3-thiazol-2-yl]azetidin-1-yl}-2-methylpropanoic acid]: less than 100 nM.
`Cc1cc(Nc2nccc(C(F)(F)F)n2)cc(-c2cnc(C3(O)CCCC(O)C3(C)C)s2)c1` (stereo not drawn) [Example 8B-3]: the IC50 was less than 100 nM.
Next, `Cc1cc(Nc2nccc(C)n2)cc(-c2cnc(C3(O)CCNC(=O)CC3)s2)c1` (stereo not drawn) [4D-7]: less than 100 nM; `CCOC(=O)C1CCC(c2ncc(-c3cc(C)cc(Nc4nccc(C(F)(F)F)n4)c3)s2)CC1` (stereo not drawn) [Example 35, ethyl 4-[5-(3-methyl-5-{[4-(trifluoromethyl)pyrimidin-2-yl]amino}phenyl)-1,3-thiazol-2-yl]cyclohexanecarboxylate]: 100 to 1000 nM; `O=C(Nc1cc(Nc2nccc(C(F)(F)F)n2)cc(-c2cnc(C3(O)CCC3)s2)c1)NC1CCCC1` [Example 19, 1-cyclopentyl-3-(3-[2-(1-hydroxycyclobutyl)-1,3-thiazol-5-yl]-5-{[4-(trifluoromethyl)pyrimidin-2-yl]amino}phenyl)urea]: less than 100 nM.
Next, `CCOC(=O)C1CCC(O)(c2ncc(-c3cc(C)cc(Nc4nccc(C(F)(F)F)n4)c3)s2)C(C)C1C` (stereo not drawn) [Example 4B-57]: less than 100 nM; `Cc1cc(Nc2nccc(C(F)(F)F)n2)cc(-c2cnc(C3=CC(=O)NCCC3)s2)c1` [Example 10B-2]: less than 100 nM.
Next, `OC1(c2ncc(-c3cccc(Nc4nccc(C(F)(F)F)n4)c3)s2)COC1` [Example 4B-11]: less than 100 nM; `Cc1cc(Nc2nccc(C(F)(F)F)n2)cc(-c2cnc(C3(O)CCC4(CC3)OCCO4)s2)c1` [Example 4B-15, 8-[5-(3-methyl-5-{[4-(trifluoromethyl)pyrimidin-2-yl]amino}phenyl)-1,3-thiazol-2-yl]-1,4-dioxaspiro[4.5]decan-8-ol]: less than 100 nM; `CCOC(=O)C1CC=C(c2ncc(-c3cc(C)cc(Nc4nccc(C(F)(F)F)n4)c3)s2)CC1` (stereo not drawn) [Example 34, ethyl 4-[5-(3-methyl-5-{[4-(trifluoromethyl)pyrimidin-2-yl]amino}phenyl)-1,3-thiazol-2-yl]cyclohex-3-ene-1-carboxylate]: 100 to 1000 nM.
On to `Cc1cc(Nc2nccc(C(F)(F)F)n2)cc(-c2cnc(C3(O)CCCC4CC43)s2)c1` (stereo not drawn) [Example 4B-18], for which the IC50 is less than 100 nM.
